Assay in all cases: DTP human tumour cell line panel, 48 h
The subject of assay [1] is OVCAR-8 ovarian.
The subject of assay [2] is HOP-92 NSCLC.
For assay [3], the system named is HS 578T breast.
The subject of assay [4] is SK-OV-3 ovarian.
The subject of assay [5] is HT29 colon.
Assay [6] deals with SK-MEL-28 melanoma.
Assay [7] relates to A549 NSCLC.
In assay [8] the test system is HCT-15 colon.
The test system of assay [9] is BT-549 breast.
Assay [10] concerns MCF7 breast.

Drawing on PubChem BioAssay (NCI), this text covers TGI and GI50 for twelve molecules.

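All cell lines were grown in 96-well plates and treated with compound for 48 hours. GI50: concentration for 50% inhibition of growth. TGI is the concentration that stops growth completely.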

Regarding `CCOC(OCC)C(CC)[Se]c1ccccc1[N+](=O)[O-]` (centres undefined), the TGI (usually the concentration at which net growth stops) in assay [1] is 49.9 µM; in assay [2], greater than 61.1 µM; in assay [3], greater than 100 µM; in assay [4], 9.44 µM; in assay [5], 7.31 µM; in assay [6], greater than 100 µM. Moreover, the TGI in [7] is greater than 63.3 µM; in assay [8], 22.2 µM.
In the case of `O=C(O)c1cc2ccccc2c(N=Nc2c([N+](=O)[O-])cc([N+](=O)[O-])cc2S(=O)(=O)O)c1O`, the TGI in assay [1], in [2], in [3], in assay [4], in assay [5] and in assay [9] was greater than 100 µM throughout. Also, the TGI in assay [6], in assay [7] and in assay [8] was greater than 100 µM in each case.
For the molecule `CN(C)CCNC(=O)c1cccc2cc3ccccc3nc12`, the GI50 (in general, the concentration giving 50% growth inhibition) in [1] was 0.62 µM; in [2], 1.24 µM; in assay [10], 0.612 µM; in assay [3] it was 1.6 µM; in assay [4], 1.03 µM; in assay [5], 0.774 µM. Also, the GI50 in [9] was 2.41 µM; in assay [6], 1.97 µM; in assay [8], 1.25 µM. Further, the TGI turned out to be 7.73 µM in assay [1]; 5.41 µM in [2]; 11.4 µM in assay [10]; 10.2 µM in [3]; 11 µM in assay [4]; 3.15 µM in assay [5]. Further, the TGI in assay [9] was 10.8 µM; in assay [6], 4.41 µM.
Regarding `CCc1cccc(CC)c1NC(=S)NC(=O)c1ccc(Br)cc1`, the TGI in assay [1] is greater than 100 µM; in [2], 64.6 µM; in assay [10] it was 71.7 µM; in assay [3], greater than 100 µM; in assay [4], greater than 100 µM; in assay [5] it was greater than 100 µM. Also, the TGI in assay [6] was greater than 100 µM; in assay [7], greater than 100 µM; in assay [8], greater than 78.4 µM.
Consider `COc1cc2c3c(n(CCN)c(=O)c2cc1OC)-c1cc2c(cc1C3=O)OCO2`, for which the GI50 in [1] was 1.12 µM; in assay [2] it was 0.82 µM; in [10], 0.0832 µM; in assay [3] it was 1.85 µM; in assay [4] it was 2.57 µM; in assay [9] it was 0.959 µM. The values for the GI50 in assay [6], in assay [7] and in assay [8] were 1.55 µM, 0.506 µM and 0.471 µM, respectively. Besides, the concentration for total growth inhibition (TGI) in [2] was 2.62 µM; in assay [10] it was 2.98 µM; in [3], 4.51 µM; in assay [4], greater than 100 µM; in assay [9] it was 3.01 µM; in [6], 3.44 µM. The same molecule had a TGI in [7] greater than 23.7 µM.
Regarding `Cc1cc(Cc2cc(C)c(NC(=O)C(=O)C3C(=O)NC(=S)NC3=O)c(C(C)C)c2)cc(C(C)C)c1NC(=O)C(=O)C1C(=O)NC(=S)NC1=O`, the TGI in assay [1], in [2], in assay [4], in assay [5], in [6] and in assay [7] was greater than 100 µM in each case. Also, the TGI in [8] is greater than 100 µM.
For `Cc1ccc(-c2ccc(Nc3c4ccccc4nc4ccccc34)cc2)cn1`, the TGI in assay [1] was greater than 100 µM; in assay [2] it was 3.28 µM; in assay [10] it was 8.91 µM; in assay [3] it was 58.3 µM; in assay [5] it was 4.75 µM; in assay [6], 9.18 µM. Moreover, the figures for the TGI in assay [7] and in [8] were 10.3 µM and 17.2 µM, respectively.
`C=C(CN1CCN(c2cccc(C(F)(F)F)c2)CC1)c1ccc(C(=O)Nc2ccccc2N)cc1`: the GI50 in [1] was 1.4 µM; in assay [2], 1.51 µM; in assay [10] it was 1.25 µM; in assay [3], 0.491 µM; in assay [5] it was 1.46 µM; in assay [9], 0.332 µM. For the same molecule, the GI50 in assay [6] was 3.4 µM; in [7], 1.48 µM; in [8], 0.48 µM. Moreover, the TGI in assay [1] is 17.2 µM; in assay [2] it was 17.8 µM; in [10], greater than 27.5 µM; in assay [3], greater than 36.3 µM; in [5] it was greater than 50 µM; in assay [9], 5.06 µM. The TGI is greater than 27.2 µM in assay [6], greater than 27.3 µM in assay [7] and 3.62 µM in [8].
As to `CCC(C(=O)[O-])C(=O)[O-].CCC(C(=O)[O-])C(=O)[O-].N.N.NCCCCCN.[Pt+4].[Pt+4]`, the GI50 in [1], in assay [2], in [4], in [5], in assay [6] and in assay [7] was greater than 100 µM throughout. Also, the GI50 in assay [8] was greater than 100 µM. Further, the TGI in assay [1], in assay [2], in [4], in [5], in assay [6] and in assay [7] was greater than 100 µM each time. For the same molecule, the TGI in assay [8] is greater than 100 µM.
Consider `CN(C)c1ccc(/C=C2\CNC/C(=C\c3ccc(N(C)C)cc3)C2=O)cc1`, for which the TGI in [1] is 43.7 µM; in [2], 55.2 µM; in assay [4], greater than 100 µM; in assay [5], 24.1 µM; in assay [6], 42 µM; in assay [7] it was 56.5 µM. In addition, in assay [8], the TGI stood at 15.5 µM.
Turning to `CCOc1ccccc1NC(=O)CCc1nnc2s/c(=C\CCc3ccccc3)c(=O)n12`, the TGI in assay [1], in assay [2], in assay [4], in assay [5], in [6] and in assay [7] was greater than 100 µM each time. For the same molecule, the TGI in assay [8] is greater than 100 µM.
For the molecule `OCCSCCCSCCO`, the TGI in [1] is greater than 100 µM; in assay [2] it was 98.8 µM; in assay [10], greater than 100 µM; in [4], greater than 100 µM; in assay [5] it was greater than 100 µM; in [9], greater than 100 µM. The TGI in [6], in [7] and in assay [8] was greater than 100 µM each time.
